Assay results reported in patent publication US11918581B2, “Combination therapy comprising JAK pathway inhibitor and rock inhibitor” (Incyte Corporation, priority 2021, dated 2024).
Entries after “also recorded” stand apart in the source; their conditions may differ. Where two headings read alike, the source gives them in different places.

What was measured:
[1] = target: human JAK2 (a.a. 828-1132) (Homo sapiens (Human), UniProt O60674); assay: In vitro JAK kinase assay (HTRF), JAK2; type: biochemical; details: JAK2/JAK1 IC50 ratio, 1 mM ATP
Chain of human JAK2 (a.a. 828-1132) (O60674 828-1132): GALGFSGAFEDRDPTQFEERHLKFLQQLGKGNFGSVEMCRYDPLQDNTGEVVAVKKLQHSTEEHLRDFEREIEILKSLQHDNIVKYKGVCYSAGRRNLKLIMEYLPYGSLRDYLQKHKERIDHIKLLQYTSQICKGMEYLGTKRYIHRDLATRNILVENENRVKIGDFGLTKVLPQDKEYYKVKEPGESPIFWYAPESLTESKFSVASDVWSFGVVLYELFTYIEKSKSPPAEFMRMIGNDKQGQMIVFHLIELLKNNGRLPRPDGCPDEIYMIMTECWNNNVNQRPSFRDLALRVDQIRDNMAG
Method: (§1) The catalytic activity of JAK1, JAK2, or JAK3 was assayed by measuring the phosphorylation of a biotinylated peptide. The phosphorylated peptide was detected by homogenous time resolved fluorescence (HTRF). […] Reactions are carried out at room temperature for 1 hour and then stopped with 20 μL 45 mM EDTA, 300 nM SA-APC, 6 nM Eu-Py20 in assay buffer (Perkin Elmer, Boston, MA). Binding to the Europium labeled antibody takes place for 40 minutes and HTRF signal was measured on a Fusion plate reader (Perkin Elmer, Boston, MA).

[2] = tested on: GVHD; details: 60 mg/kg per day or 120 mg/kg per day; prophylactic and therapeutic dosing; cited from earlier work
[3] = tested on: sclerodermatous chronic GVHD; assay: Example 1: murine model of sclerodermatous chronic GVHD, itacitinib and belumosudil; type: in vivo, C57Bl/6 mice; details: PO d21-56; itacitinib 120 mg/kg BID, belumosudil 150 mg/kg QD; FIG. 1
Method: The effects of therapeutic dosing of a selective JAK1 inhibitor (itacitinib), a ROCK2 inhibitor (belumosudil), and a combination the selective JAK1 inhibitor and ROCK2 inhibitor (itacitinib+belumosudil) combination were tested in a murine model of sclerodermatous chronic GVHD. Sclerodermatous chronic GVHD was induced in C57Bl/6 mice using a single acute dose of 8.5 Gy of total body irradiation on Day −1. On Day 0, recipient mice were given an intravenous injection of a combination of splenocytes and bone marrow cells from donor LP/J mice. Starting at day 21, animals were dosed with vehicle, itacitinib, belumosudil, or the combination of both itacitinib and belumosudil (P.O., B.I.D, see Table 2). All animals were monitored on a daily basis to record weight change, survival and GVHD score (see Table 3). On days 33, 36, 39, 42 and 45 all animals were photographed under isoflurane anesthesia to assess disease severity. [table] [table]

[4] = target: human JAK1 (a.a. 837-1142) (Homo sapiens, UniProt P23458); assay: In vitro JAK kinase assay (HTRF), JAK1; type: biochemical; details: 1 mM ATP
Method: as §1

[5] = tested on: acute GVHD (aGVHD); details: patients, cited from earlier work
[6] = tested on: sclerodermatous chronic GVHD; assay: Example 2: murine model of sclerodermatous chronic GVHD, ruxolitinib and belumosudil; type: in vivo, C57Bl/6 mice; details: PO d21-56; ruxolitinib 60 mg/kg BID, belumosudil 150 mg/kg QD; FIG. 3
Method: The effects of therapeutic dosing of a JAK1/2 inhibitor (ruxolitinib), a ROCK2 inhibitor (belumosudil), and a combination of the JAK1/2 inhibitor and ROCK2 inhibitor (ruxolitinib+belumosudil) combination were tested in a murine model of sclerodermatous chronic GVHD. Sclerodermatous chronic GVHD was induced in C57Bl/6 mice using a single acute dose of 8.5 Gy of total body irradiation on Day −1. On Day 0, recipient mice were given an intravenous injection of a combination of splenocytes and bone marrow cells from donor LP/J mice. Starting at day 21, animals were dosed with vehicle, ruxolitinib, belumosudil, or the combination of both ruxolitinib and belumosudil (P.O., B.I.D, see Table 4). All animals were monitored on a daily basis to record weight change, survival and GVHD score (see Table 5). On days 33, 36, 39, 42 and 45 all animals were photographed under isoflurane anesthesia to assess disease severity. [table] [table]

[7] = tested on: chronic GVHD (cGVHD); details: patients; cited from earlier work
[8] = tested on: lung cGVHD; details: cited from earlier work

Row | SMILES | JAK2/JAK1 [1] | GVHD score [2] | GVHD score compared to vehicle-treated animals [3] | IC50 [4] | clinical efficacy in acute GVHD ([5]; listed as itacitinib) | GVHD score compared to vehicle-treated animals [6] | clinical efficacy in chronic GVHD [7] | increase in FEV1 ([8]; 1 patient) | responses ([8]; 5 pediatric patients (4 evaluable) with lung cGVHD) | patients able to wean steroids completely ([8]; 5 pediatric patients) | decrease of the steroid requirement ([8]; final patient) | clinical efficacy in acute GVHD [5]
1 | N#CCC1(n2cc(-c3ncnc4[nH]ccc34)cn2)CN(C2CCN(C(=O)c3ccnc(C(F)(F)F)c3F)CC2)C1 [Compound 1, {1-{1-[3-Fluoro-2-(trifluoromethyl)isonico-tinoyl]piperidin-4-yl}-3-[4-(7H-pyrrolo[2,3-d]pyrimidin-4-yl)-1H-pyrazol-1-yl]azetidin-3-yl}acetonitrile] | >10 | improvement in the GVHD score | reduction in GVHD scores | < 10 nM | clinical efficacy; also recorded: significant clinical activity |  |  |  |  |  |  | 
2 | N#CC[C@H](C1CCCC1)n1cc(-c2ncnc3[nH]ccc23)cn1 [ruxolitinib, (R)-3-(4-(7H-pyrrolo[2,3-d]pyrimidin-4-yl)-1H-pyrazol-1-yl)-3-cyclopentylpropanenitrile] |  |  |  |  |  | numerical reduction in GVHD scores | clinical efficacy | 9% | 2 | Four out of five | > 50% | clinical efficacy
3 | CC(C)NC(=O)COc1cccc(-c2nc(Nc3ccc4[nH]ncc4c3)c3ccccc3n2)c1 [belumosudil, 2-(3-(4-((1H-indazol-5-yl)amino)quinazolin-2-yl)phenoxy)-N-isopropylacetamide, reference compound] |  |  | reduction in GVHD scores |  |  | no benefit |  |  |  |  |  | 
